Data from patent publication US8802704B2, “Oxadiazole derivatives” (Merck Serono SA, priority 2009, dated 2014).
Where two headings read alike, the source gives them in different places.

Experiments:
S1P1 [1] = molecular target: T1, S1P1 (Homo sapiens, UniProt P21453); assay: S1P1 internalization assay in S1P1-U2OS cells (cell imaging); format: cell-based; settings: U2OS cells expressing S1P1-EGFP, 1 hour
Method: Cellular functional assays: Internalization of Sphingosine-1-phosphate receptor 1 (S1P1) in a human Cell line (U2OS) in a 384-well format using a Cell Imaging analysis.
The S1P1 internalization assay was performed in 384 well plates (Corning® 384 black with clear bottom 3712) using S1P1-U2OS cells from Biolmage (C039A), a human epithelial cell line (Human Bone Osteosarcoma Epithelial Cells). These cells expressed the human S1P1 Receptor fused to the green fluorescent protein (EGFP). A standard CMV promoter (cytomegalovirus promoter) controls the expression of S1P1-EGFP and continuous expression was maintained by addition of geneticin to the culture medium.
S1P1Receptor desensitization induced the internalization of the membrane-localized S1P1-EGFP fusion protein to endosomes, which can be monitored by cell imaging analysis. The cells are plated in low serum medium (Dulbecco's Modified Eagle Medium (DMEM) with Glutamax-1 and high glucose, 1% Penicillin/Streptomycin, 1% Fetal Calf Serum (FCS), 0.5 mg/ml Geneticin) overnight.
The next day, S1P1-U2OS cells are incubated in 20 μl serum free medium (DMEM with Glutamax-1 and high glucose, 0.1% of fatty-acid free Bovin Serum Albumin (BSA), 10 mM, N′-2-Hydroxyethylpiperazine-N′-2 ethanesulphonic acid (HEPES) 1M) for 2 hours at 37° C./5% CO2. The cells are then treated with 4 μl compounds/agonists (6×/3% DMSO) for a total volume of 24 μl, and plates are incubated for 1 hour at 37° C./5% CO2.
S1P1-U2OS cells are fixed with 25 μl Paraformaldehyde 8% and stained with Hoechst 33345 dye (1:1000) for 20 minutes.
They were then washed 3 times with Phosphate Buffered Saline (PBS) and plates are sealed. The internalization of the receptor S1P1-EGFP is measured on Cellomics by calculating the “spot count per object” (“object” corresponds to nuclear and “spot” corresponds to S1P1-EGFP receptor). Internalization data were observed thanks to vHCS View and analyzed using Genedata® software.
Target sequence in this assay (P21453 whole entry): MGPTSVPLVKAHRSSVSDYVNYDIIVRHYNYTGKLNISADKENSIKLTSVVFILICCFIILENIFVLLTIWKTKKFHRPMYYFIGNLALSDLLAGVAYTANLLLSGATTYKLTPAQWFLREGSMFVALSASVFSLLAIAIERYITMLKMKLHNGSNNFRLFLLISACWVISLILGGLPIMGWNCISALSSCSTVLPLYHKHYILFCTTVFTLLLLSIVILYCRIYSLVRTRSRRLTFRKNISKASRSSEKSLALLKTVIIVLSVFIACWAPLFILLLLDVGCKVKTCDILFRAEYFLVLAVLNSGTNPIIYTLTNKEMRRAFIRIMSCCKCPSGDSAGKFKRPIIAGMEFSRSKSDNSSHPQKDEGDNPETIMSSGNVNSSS

S1P1 [2] = molecular target: T1, S1P1; assay: Receptor binding assay, [33P]sphingosine 1-phosphate competition (SPA), S1P1
Method: Cells were suspended in 50 mM TRIS, pH 7.4, 2 mM EDTA, 250 mM Sucrose (buffer A) and 1× Complete protease inhibitor cocktail (Roche), and disrupted at 4° C. by N2 decompression using a cell disruption bomb (Parr Instrument). […] The pellet was then suspended in 10 mM HEPES, pH 7.4, 1 mM EDTA, 250 mM Sucrose (Buffer B), and 1× Complete EDTA-free protease inhibitor cocktail and homogenized using a potter. Membranes were flash frozen in liquid N2 and stored at −80° C.
[33P]sphingosine 1-phosphate (3000 Ci/mmol; American Radiolabeled Chemicals, Inc.) was added to test compounds in 20% DMSO by competition. […] Triplicate samples were averaged and normalized as percentage of inhibition relative to total binding (only DMSO in well) and non-specific binding (1000-fold excess of unlabeled S1P). Binding data were analyzed using the GraphPad Prism program or Genedata software.
Target sequence in this assay (P21453 whole entry, species assumed): as the sequence (P21453 whole entry) above

S1P3 = S1P3 (Homo sapiens, UniProt Q99500); assay: Receptor binding assay, [33P]sphingosine 1-phosphate competition (SPA), S1P3
Method: Membranes were prepared from CHO cells expressing S1P1 or S1P3 for use in ligand and […] binding studies. Cells were suspended in 50 mM TRIS, pH 7.4, 2 mM EDTA, 250 mM Sucrose (buffer A) and 1× Complete protease inhibitor cocktail (Roche), and disrupted at 4° C. by N2 decompression using a cell disruption bomb (Parr Instrument). Following centrifugation at 1000 RPM for 10 min at 4° C., the supernatant was diluted (2×) in buffer A and centrifuged again at 19000 RPM for 75 min at 4° C. The pellet was then suspended in 10 mM HEPES, pH 7.4, 1 mM EDTA, 250 mM Sucrose (Buffer B), and 1× Complete EDTA-free protease inhibitor cocktail and homogenized using a potter. Membranes were flash frozen in liquid N2 and stored at −80° C.
[33P]sphingosine 1-phosphate (3000 Ci/mmol; American Radiolabeled Chemicals, Inc.) was added to test compounds in 20% DMSO by competition. Membranes and WGA SPA beads (GE Healthcare) were added to give a final volume of 100 μl in 96-well plates or 50 μl in 384-well plates with assay concentrations of 30 pM or 15 pM [33P]sphingosine 1-phosphate (respectively for S1P1 or S1P3), 50 mM HEPES, pH 7.5, 5 mM MgCl2, 100 mM NaCl, 0.4% fatty acid-free BSA, 1-5 μg/well of proteins in 96-well plates vs 0.6-1 μg/well of proteins in 384-well plates and 100 μg/well of WGA SPA beads in 96-well plates vs 75 μg/well of WGA SPA beads in 384-well plates. Binding was performed for 60 min at RT on a shaker and bound radioactivity was measured on a PerkinElmer 1450 MicroBeta counter. Triplicate samples were averaged and normalized as percentage of inhibition relative to total binding (only DMSO in well) and non-specific binding (1000-fold excess of unlabeled S1P). Binding data were analyzed using the GraphPad Prism program or Genedata software.

[3] = 384 well-plate, read-out: S1P1 binding Ki (M) (384 well-plate)
[4] = 96 well-plate, read-out: S1P3 binding Ki (M) (96 well-plate)
[5] = 384 well-plate, read-out: S1P3 binding Ki (M) (384 well-plate)
[6] = 96 well-plate, read-out: S1P1 binding Ki (M) (96 well-plate)

S1P3, sequence (Q99500 whole entry, species assumed): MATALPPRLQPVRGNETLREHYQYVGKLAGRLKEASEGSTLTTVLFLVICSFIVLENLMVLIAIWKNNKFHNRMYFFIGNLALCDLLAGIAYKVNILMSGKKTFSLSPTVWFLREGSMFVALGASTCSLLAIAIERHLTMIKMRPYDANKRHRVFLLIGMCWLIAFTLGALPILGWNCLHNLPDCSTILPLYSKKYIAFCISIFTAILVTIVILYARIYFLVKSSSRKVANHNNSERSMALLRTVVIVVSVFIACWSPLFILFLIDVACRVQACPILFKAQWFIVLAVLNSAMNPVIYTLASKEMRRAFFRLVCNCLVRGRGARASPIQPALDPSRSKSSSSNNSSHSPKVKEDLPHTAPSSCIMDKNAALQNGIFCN

| SMILES | EC50 (S1P1 [1]) [nM] | Ki (S1P1 [2]; [3]) [M] | Ki (S1P3; [4]) [M] | Ki (S1P3; [5]) [M] | Ki (S1P1 [2]; [6]) [M] |
| --- | --- | --- | --- | --- | --- |
| CCOc1cc(-c2nc(-c3ccc(CN(C)CC(=O)O)cc3)no2)ccc1-c1ccccc1C(F)(F)F [Example 115, N-(4-{5-[2-ethoxy-2′-(trifluoromethyl)biphenyl-4-yl]-1,2,4-oxadiazol-3-yl}benzyl)-N-methylglycine] | 9.03 | 2.15e-09 | 6.68e-07 | 2.21e-06 | – |
| COCc1cc(-c2nc(-c3cccc(CN(C)CC(=O)O)c3)no2)ccc1-c1ccc(F)cc1C(F)(F)F [Example 50, N-(3-{5-[4′-fluoro-2-(methoxymethyl)-2′-(trifluoromethyl)biphenyl-4-yl]-1,2,4-oxadiazol-3-yl}benzyl)-N-methylglycine] | 25.3 | 1.24e-08 | 7.71e-07 | 1.18e-06 | 8.49e-10 |
| Cc1ccccc1-c1ccc(-c2nc(-c3ccc(CN(C)CCCC(=O)O)cc3)no2)cc1C(F)(F)F [Example 116, 4-[methyl(4-{5-[2′-methyl-2-(trifluoromethyl)biphenyl-4-yl]-1,2,4-oxadiazol-3-yl}benzyl)amino]butanoic acid] | 3.65 | 1.33e-09 | 3.33e-07 | 1.31e-06 | – |
| CN(CC(=O)O)Cc1cccc(-c2noc(-c3ccc(-c4ccccc4)c(C(F)(F)F)c3)n2)c1 [Example 68] | 11.2 | – | 1.09e-07 | – | 3.57e-10 |
| Cc1cc(-c2nc(-c3cccc(CN(C)CC(=O)O)c3)no2)ccc1-c1ccccc1C(F)(F)F [Example 101, N-methyl-N-(3-{5-[2-methyl-2′-(trifluoromethyl)biphenyl-4-yl]-1,2,4-oxadiazol-3-yl}benzyl)glycine] | 69.3 | 5.63e-09 | 9.43e-06 | 6.59e-06 | – |
| Cc1cc(-c2nc(-c3cc(F)cc(CN(C)CC(=O)O)c3)no2)ccc1-c1ccccc1C(F)(F)F [Example 104, N-(3-fluoro-5-{5-[2-methyl-2′-(trifluoromethyl)biphenyl-4-yl]-1,2,4-oxadiazol-3-yl}benzyl)-N-methylglycine] | 15 | 8.98e-09 | – | 2.14e-06 | – |
| CCN(CCC(=O)O)Cc1cccc(-c2noc(-c3ccc(-c4ccccc4C)c(C(F)(F)F)c3)n2)c1 [Example 69, N-ethyl-N-(3-{5-[2′-methyl-2-(trifluoromethyl)biphenyl-4-yl]-1,2,4-oxadiazol-3-yl}benzyl)-beta-alanine] | 8.97 | 1.47e-09 | 4.67e-08 | – | 2.21e-10 |
| Cc1ccccc1-c1ccc(-c2nc(-c3ccc(CN(C)CC(=O)O)cc3)no2)cc1C(F)(F)F [Example 81, N-methyl-N-(4-{5-[2′-methyl-2-(trifluoromethyl)biphenyl-4-yl]-1,2,4-oxadiazol-3-yl}benzyl)glycine] | 11.4 | 2.74e-09 | 8.31e-07 | 8.55e-07 | 4.12e-10 |
| Cc1ccccc1-c1ccc(-c2nc(-c3cccc(CN(C)CC(=O)O)c3F)no2)cc1C(F)(F)F [Example 112, N-(2-fluoro-3-{5-[2′-methyl-2-(trifluoromethyl)biphenyl-4-yl]-1,2,4-oxadiazol-3-yl}benzyl)-N-methylglycine] | 6.26 | 4.95e-10 | 1.49e-07 | 1.92e-07 | – |
| Cc1ccccc1-c1ccc(-c2nc(-c3ccc(CN(C)CC(=O)O)c(Cl)c3)no2)cc1C(F)(F)F [Example 129, 2-((4-(5-(2-(trifluoromethyl)-2′-methylbiphenyl-4-yl)-1,2,4-oxadiazol-3-yl)-2-chlorobenzyl)(methyl)amino)acetic acid] | 23.3 | 5.33e-09 | – | 9.76e-07 | – |
| Cc1cc(CN(C)CC(=O)O)ccc1-c1noc(-c2ccc(-c3ccccc3C)c(C(F)(F)F)c2)n1 [Example 103, 2-(methyl(3-methyl-4-(5-(2′-methyl-2-(trifluoromethyl)biphenyl-4-yl)-1,2,4-oxadiazol-3-yl)benzyl)amino)acetic acid] | 17.7 | 1.45e-09 | 4.12e-07 | 4.68e-07 | – |
| Cc1ccccc1-c1ccc(-c2nc(-c3ccc(CN(C)CC(=O)O)c(F)c3F)no2)cc1C(F)(F)F [Example 150, 2-((2,3-difluoro-4-(5-(2-(trifluoromethyl)-2′-methylbiphenyl-4-yl)-1,2,4-oxadiazol-3-yl)benzyl)(methyl)amino)acetic acid] | 18 | 2.07e-09 | – | 2.97e-07 | – |
| CN(CC(=O)O)Cc1cc(F)cc(-c2noc(-c3ccc(-c4ccccc4C(F)(F)F)c(Cl)c3)n2)c1 [Example 136, N-(3-{5-[2-chloro-2′-(trifluoromethyl)biphenyl-4-yl]-1,2,4-oxadiazol-3-yl}-5-fluorobenzyl)-N-methylglycine] | 40.9 | 4.27e-09 | – | 2.32e-06 | – |
| Cc1ccccc1-c1ccc(-c2nc(-c3ccc(CN(C)CC(=O)O)cc3Cl)no2)cc1C(F)(F)F [Example 145, 2-((4-(5-(2-(trifluoromethyl)-2′-methylbiphenyl-4-yl)-1,2,4-oxadiazol-3-yl)-3-chlorobenzyl)(methyl)amino)acetic acid] | 9.44 | 2.22e-09 | – | 2.85e-07 | – |
| CN(CC(=O)O)Cc1ccc(-c2noc(-c3ccc(-c4ccccc4C(F)(F)F)c(Cl)c3)n2)cc1F [Example 134, N-(4-{5-[2-chloro-2′-(trifluoromethyl)biphenyl-4-yl]-1,2,4-oxadiazol-3-yl}-2-fluorobenzyl)-N-methylglycine] | 37.3 | 4.07e-09 | – | 1.8e-05 | – |
| COCc1cc(-c2nc(-c3cccc(CN(C)CC(=O)O)c3F)no2)ccc1-c1ccccc1C(F)(F)F [Example 114, N-(2-fluoro-3-{5-[2-(methoxymethyl)-2′-(trifluoromethyl)biphenyl-4-yl]-1,2,4-oxadiazol-3-yl}benzyl)-N-methylglycine] | 15.6 | 1.91e-09 | 1.09e-06 | 9.14e-07 | – |
| COCc1cc(-c2nc(-c3cccc(CN(C)CC(=O)O)c3)no2)ccc1-c1ccccc1C(F)(F)F [Example 49, N-(3-{5-[2-(methoxymethyl)-2′-(trifluoromethyl)biphenyl-4-yl]-1,2,4-oxadiazol-3-yl}benzyl)-N-methylglycine] | 11.3 | 2.35e-09 | 1.5e-06 | 1.41e-06 | 8.7e-10 |
| Cc1ccccc1-c1ccc(-c2nc(-c3ccc(CN(C)CCC(=O)O)cc3)no2)cc1C(F)(F)F [Example 72] | 2.05 | – | 1.88e-07 | – | 2.7e-10 |
